15 compounds from US12291518B2, “Thyroid hormone receptor agonists and use thereof” (Eccogene Inc., priority 2020, dated 2025) can be followed below.

For one experiment, the target named is T1, THR beta-LBD (Homo sapiens, UniProt P10828).
T1 construct: THR beta-LBD (the final concentration is 0.5 nM) was added to the 384-well assay plate; purchased Invitrogen PV4686
T1 sequence (P10828 217-461 limits assumed): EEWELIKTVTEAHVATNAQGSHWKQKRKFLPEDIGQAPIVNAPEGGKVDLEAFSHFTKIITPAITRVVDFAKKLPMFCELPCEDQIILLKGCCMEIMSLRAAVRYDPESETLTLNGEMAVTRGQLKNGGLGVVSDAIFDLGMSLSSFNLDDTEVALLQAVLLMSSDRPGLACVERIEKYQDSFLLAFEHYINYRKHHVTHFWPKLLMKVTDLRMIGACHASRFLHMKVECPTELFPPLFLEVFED
Put plainly: THR-β Coactivator Peptide Recruitment Assay (LanthaScreen TR-FRET). Format: biochemical. Particulars: TR-FRET coactivator recruitment, THR beta-LBD 0.5 nM; for EC50: read-out: THRβ EC50. The method, then: (§1) A time-resolved FRET (TR-FRET) assay was used to test representative compounds of the application.
(§2) THR-β Coactivator Peptide Recruitment Assay were conducted by using Invitrogen's LanthaScreen™ TR-FRET Thyroid Receptor beta Assay Kit (Catalog no. PV4686). Binding of an agonist to the nuclear receptor causes a subsequent binding of a coactivator peptide, resulting in fluorescence energy transfer from the labelled nuclear receptor to the proximal coactivator peptide, which reflects the binding affinity of the agonist and the nuclear receptor. The assay was conducted by following the manufacturer's instructions. Briefly, THR beta-LBD (the final concentration is 0.5 nM) was added to the 384-well assay plate containing test compounds, followed by addition of Fluorescein-SRC2-2 coactivator peptide and terbium (Tb)-labeled anti-GST antibody. The final concentration of THR beta-LBD, Fluorescein-SRC2-2 coactivator peptide and terbium (Tb)-labeled anti-GST antibody is 0.5 nM, 0.1 nM and 2 nM, respectively. After a gentle mix and incubation at room temperature for 2 h, the signal was read on the EnVision Multilabel Plate Reader at wavelengths of 520 nm and 495 nm. TR-FRET ratio was calculated by dividing the emission signal at 520 nm and the emission signal at 495 nm, and then was plotted against a sigmoidal dose response curve (four parameters, GraphPad™ Prism 8) to determine the EC50 value.
A general note: TR-FRET usually uses a lanthanide donor and a delayed reading to cut background.

For another experiment, the target named is T2, THR alpha-LBD (Homo sapiens, UniProt P10827).
T2 construct: except that THR alpha-LBD of a final concentration 0.25 nM was used; purchased Invitrogen PV4687
The experiment in a line: THR-α Coactivator Peptide Recruitment Assay (LanthaScreen TR-FRET). Format: biochemical. Conditions: TR-FRET coactivator recruitment, THR alpha-LBD 0.25 nM; for EC50: read-out: THRα EC50. The protocol: as §1, §2
THR-α Coactivator Peptide Recruitment Assay were conducted by using Invitrogen's LanthaScreen™ TR-FRET Thyroid Receptor alpha Assay Kit (Catalog no. PV4687), following the same method described above except that THR alpha-LBD of a final concentration 0.25 nM was used.

T2 sequence (P10827 163-410 isoform P10827-2 limits assumed, other chains not shown): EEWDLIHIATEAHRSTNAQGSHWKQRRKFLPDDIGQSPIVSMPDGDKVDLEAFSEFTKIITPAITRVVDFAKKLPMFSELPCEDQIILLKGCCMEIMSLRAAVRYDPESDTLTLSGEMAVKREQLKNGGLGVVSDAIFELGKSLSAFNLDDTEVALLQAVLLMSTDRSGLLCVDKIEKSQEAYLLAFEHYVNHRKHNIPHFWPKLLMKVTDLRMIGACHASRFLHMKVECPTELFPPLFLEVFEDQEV

Regarding `O=c1[nH]c(=O)n(-c2cc(Cl)c(Oc3ccc(O)c(S(=O)(=O)N[C@@H]4CCOC4)c3)c(Cl)c2)nc1C(F)F` [Compound 30, (R)-5-(2,6-dichloro-4-(6-(difluoromethyl)-3,5-dioxo-4,5-dihydro-1,2,4-triazin-2(3H)-yl)phenoxy)-2-hydroxy-N-(tetrahydrofuran-3-yl)benzenesulfonamide], on THR beta-LBD, the “THRβ Emax” value was “A (90~110)” and the concentration for a half-maximal effect (EC50) (usually the concentration that produces a half-maximal response) was under 2 nM. Also, at THR alpha-LBD, the “THRα Emax” value is given as “A (85~110)” and the half-maximal effective concentration (EC50) is under 2 nM.
Take `O=c1[nH]c(=O)n(-c2cc(Cl)c(Oc3ccc(O)c(S(=O)(=O)N4CCNCC4)c3)c(Cl)c2)nc1C(F)F` [Compound 31, 2-(3,5-dichloro-4-(4-hydroxy-3-(piperazin-1-ylsulfonyl)phenoxy)phenyl)-6-(difluoromethyl)-1,2,4-triazine-3,5(2H,4H)-dione]: at THR beta-LBD, the “THRβ Emax” value was “C (<75)” and the EC50 fell in the range of 2 to 20 nM. In addition, at THR alpha-LBD, the “THRα Emax” value is given as “B (40~85)” and the EC50 is 2 to 200 nM.
Take `O=C(C1CC1)N1CCN(S(=O)(=O)c2cc(Oc3c(Cl)cc(-n4nc(C(F)F)c(=O)[nH]c4=O)cc3Cl)ccc2O)CC1` [Compound 32, 2-(3,5-dichloro-4-(3-((4-(cyclopropanecarbonyl)piperazin-1-yl)sulfonyl)-4-hydroxyphenoxy)phenyl)-6-(difluoromethyl)-1,2,4-triazine-3,5(2H,4H)-dione]: at THR beta-LBD, the “THRβ Emax” value is recorded as “C (<75)” and the EC50 lay in the range of 2 to 20 nM. At THR alpha-LBD, the “THRα Emax” value was “C (<40)” and the EC50 is 2 to 200 nM.
`CN1CCN(S(=O)(=O)c2cc(Oc3c(Cl)cc(-n4nc(C(F)F)c(=O)[nH]c4=O)cc3Cl)ccc2O)CC1=O` [Compound 33, 2-(3,5-dichloro-4-(4-hydroxy-3-((4-methyl-3-oxopiperazin-1-yl)sulfonyl)phenoxy)phenyl)-6-(difluoromethyl)-1,2,4-triazine-3,5(2H,4H)-dione]: on THR beta-LBD, the “THRβ Emax” value is on record as “C (<75)” and the EC50 was under 2 nM. For the same compound, at THR alpha-LBD, the “THRα Emax” value was “B (40~85)” and the EC50 lay in the range of 2 to 200 nM.
For `CO[C@H]1C[C@H](NS(=O)(=O)c2cc(Oc3c(Cl)cc(-n4nc(C(F)F)c(=O)[nH]c4=O)cc3Cl)ccc2O)C1` [Compound 36, 5-(2,6-dichloro-4-(6-(difluoromethyl)-3,5-dioxo-4,5-dihydro-1,2,4-triazin-2(3H)-yl)phenoxy)-2-hydroxy-N-((1r,3r)-3-methoxycyclobutyl)benzenesulfonamide], in that order: “B (75~90)”, 2 to 20 nM, “B (40~85)” and 2 to 200 nM.
For `CO[C@H]1C[C@@H](NS(=O)(=O)c2cc(Oc3c(Cl)cc(-n4nc(C(F)F)c(=O)[nH]c4=O)cc3Cl)ccc2O)C1` [Compound 37, 5-(2,6-dichloro-4-(6-(difluoromethyl)-3,5-dioxo-4,5-dihydro-1,2,4-triazin-2(3H)-yl)phenoxy)-2-hydroxy-N-((1s,3s)-3-methoxycyclobutyl)benzenesulfonamide], in that order: “B (75~90)”, 2 to 20 nM, “A (85~110)” and 2 to 200 nM.
For `O=C(N1CCC1)C1(NS(=O)(=O)c2cc(Oc3c(Cl)cc(-n4nc(C(F)F)c(=O)[nH]c4=O)cc3Cl)ccc2O)CC1` [Compound 38, N-(1-(azetidine-1-carbonyl)cyclopropyl)-5-(2,6-dichloro-4-(6-(difluoromethyl)-3,5-dioxo-4,5-dihydro-1,2,4-triazin-2(3H)-yl)phenoxy)-2-hydroxybenzenesulfonamide], on THR beta-LBD, the “THRβ Emax” value is reported as “B (75~90)” and the half-maximal effective concentration (EC50) fell in the range of 2 to 20 nM. At THR alpha-LBD, the “THRα Emax” value is “A (85~110)” and the EC50 lay in the range of 2 to 200 nM.
For `CS(=O)(=O)[C@H]1CCN(S(=O)(=O)c2cc(Oc3c(Cl)cc(-n4nc(C(F)F)c(=O)[nH]c4=O)cc3Cl)ccc2O)C1` [Compound 39, (S)-2-(3,5-dichloro-4-(4-hydroxy-3-((3-(methylsulfonyl)pyrrolidin-1-yl)sulfonyl)phenoxy)phenyl)-6-(difluoromethyl)-1,2,4-triazine-3,5(2H,4H)-dione], in that order: “C (<75)”, under 2 nM, “B (40~85)” and 2 to 200 nM.
Take `O=c1[nH]c(=O)n(-c2cc(Cl)c(Oc3ccc(O)c(S(=O)(=O)N4CC(O)C4)c3)c(Cl)c2)nc1C(F)F` [Compound 40, 2-[3,5-dichloro-4-[4-hydroxy-3-(3-hydroxyazetidin-1-yl)sulfonyl-phenoxy]phenyl]-6-(difluoromethyl)-1,2,4-triazine-3,5-dione]: at THR beta-LBD, the “THRβ Emax” value is reported as “B (75~90)” and the concentration for a half-maximal effect (EC50) was under 2 nM. In addition, on THR alpha-LBD, the “THRα Emax” value is recorded as “A (85~110)” and the concentration giving a half-maximal response (EC50) was in the range of 2 to 200 nM.
For `C[C@@H](CO)NS(=O)(=O)c1cc(Oc2c(Cl)cc(-n3nc(C(F)F)c(=O)[nH]c3=O)cc2Cl)ccc1O` [Compound 41, (S)-5-(2,6-dichloro-4-(6-(difluoromethyl)-3,5-dioxo-4,5-dihydro-1,2,4-triazin-2(3H)-yl)phenoxy)-2-hydroxy-N-(1-hydroxypropan-2-yl)benzenesulfonamide], in that order: “B (75~90)”, under 2 nM, “A (85~110)” and 2 to 200 nM.
For the compound `O=c1[nH]c(=O)n(-c2cc(Cl)c(Oc3ccc(O)c(S(=O)(=O)NC[C@H]4C[C@H](O)C4)c3)c(Cl)c2)nc1C(F)F` [Compound 43, 5-(2,6-dichloro-4-(6-(difluoromethyl)-3,5-dioxo-4,5-dihydro-1,2,4-triazin-2(3H)-yl)phenoxy)-2-hydroxy-N-(((1r,3r)-3-hydroxycyclobutyl)methyl)benzenesulfonamide], at THR beta-LBD, the “THRβ Emax” value is listed as “A (90~110)” and the EC50 lay within 2 to 20 nM. On THR alpha-LBD, the “THRα Emax” value is “A (85~110)” and the EC50 was 2 to 200 nM.
For `O=c1[nH]c(=O)n(-c2cc(Cl)c(Oc3ccc(O)c(S(=O)(=O)NC[C@H]4C[C@@H](O)C4)c3)c(Cl)c2)nc1C(F)F` [Compound 44, 5-(2,6-dichloro-4-(6-(difluoromethyl)-3,5-dioxo-4,5-dihydro-1,2,4-triazin-2(3H)-yl)phenoxy)-2-hydroxy-N-(((1s,3s)-3-hydroxycyclobutyl)methyl)benzenesulfonamide], in that order: “B (75~90)”, 2 to 20 nM, “A (85~110)” and 2 to 200 nM.
On to `C[C@H](CO)NS(=O)(=O)c1cc(Oc2c(Cl)cc(-n3nc(C(F)F)c(=O)[nH]c3=O)cc2Cl)ccc1O` [Compound 45, (R)-5-(2,6-dichloro-4-(6-(difluoromethyl)-3,5-dioxo-4,5-dihydro-1,2,4-triazin-2(3H)-yl)phenoxy)-2-hydroxy-N-(1-hydroxypropan-2-yl)benzenesulfonamide], for which, on THR beta-LBD, the “THRβ Emax” value is listed as “B (75~90)” and the concentration giving a half-maximal response (EC50) was under 2 nM. Moreover, on THR alpha-LBD, the “THRα Emax” value is “A (85~110)” and the concentration for a half-maximal effect (EC50) is 2 to 200 nM.
For `CS(=O)(=O)N[C@H]1CCN(S(=O)(=O)c2cc(Oc3c(Cl)cc(-n4nc(C(F)F)c(=O)[nH]c4=O)cc3Cl)ccc2O)C1` [Compound 46, N-[(3S)-1-[5-[2,6-dichloro-4-[6-(difluoromethyl)-3,5-dioxo-1,2,4-triazin-2-yl]phenoxy]-2-hydroxy-phenyl]sulfonylpyrrolidin-3-yl]methanesulfonamide], in that order: “B (75~90)”, under 2 nM, “B (40~85)” and 2 to 200 nM.
For `CS(=O)(=O)N[C@@H]1CCN(S(=O)(=O)c2cc(Oc3c(Cl)cc(-n4nc(C(F)F)c(=O)[nH]c4=O)cc3Cl)ccc2O)C1` [Compound 47, (R)-N-(1-((5-(2,6-dichloro-4-(6-(difluoromethyl)-3,5-dioxo-4,5-dihydro-1,2,4-triazin-2(3H)-yl)phenoxy)-2-hydroxyphenyl)sulfonyl)pyrrolidin-3-yl)methanesulfonamide], in that order: “C (<75)”, 2 to 20 nM, “B (40~85)” and 2 to 200 nM.
